Measurements taken from US20240325435A1, “METHODS OF USING COMPOUND OF GLYCOSAMINOGLYCAN” (Holy Stone Healthcare Co., Ltd., priority 2013, published 2024).

Key:
Raw 264.7 cells [1] = experiment: In vitro anti-inflammatory effect, PGE2 amount in LPS-treated Raw 264.7 cells; type: cell-based; settings: 4 hours
Experimental: Raw 264.7 cells (1×10^6 cells/well, 1000 μL) were incubated in a 24-well culture plate in the presence of 5% CO2 at 37° C. for 24 hours. • 2. […] Cell media were collected, and used for measuring PGE2. • 4. Nunc-Immuno 96-well plates were coated with goat polyclonal anti-mouse IgG secondary antibody. • 5. Aliquots of cell media were added to the immune plate with primary PGE2 monoclonal antibody and a tracer PGE2-acetylcholinesterase overnight at room temperature in the dark. • 6. The next day, the wells were aspirated, washed with 100 μL wash buffer (Cayman Chemical, Ann Arbor, MI, USA) five times. • 7. 200 μL of Elman's reagent was added in each well, and incubated 60-90 minutes at room temperature out of direct light. • 8. Gentle rotating/shaking was used to decrease the time required for color development. • 9. Absorbance was read at 412 nm. • 10. The PGE2 concentration of each sample was calculated from a PGE2 standard curve. • 11. The PGE2 amount percentage was as a function of the PGE2 level of each sample divided by the one of the control group which was LPS-treated, then multiplied this value by 100. • 12. […]
Raw 264.7 cells (1×10^6 cells/well, 1000 μL) were incubated in a 24-well culture plate in the presence of 5% CO2 at 37° C. for 24 hours. • 2. […] Absorbance was read at 412 nm. • 10. The PGE2 concentration of each sample was calculated from a PGE2 standard curve. • 11. […]

Raw 264.7 cells [2] = experiment: In vitro anti-inflammatory effect, nitrite by Griess reaction in LPS-treated Raw 264.7 cells; type: cell-based; settings: 10 μM Budesonide equivalent, 378 μg/ml HA, 4 hours, then 1 μg/mL LPS 24 hours
Experimental: • 1. Raw 264.7 cells were suspended in culture medium without phenol red (Gibco-BRL, Vienna, Austria) and adjusted to 10^6/ml, and treated with 10 μM Budesonide, 378 μg/ml HA and HA-ADH-Budesonide (equal to 10 μM Budesonide). • 2. After treatment with drugs for 4 hours, 1 μg/mL LPS was added into medium for 24 hours. • 3. Cells treated with medium only served as a negative control group and treated with LPS (1 μg/mL) as a positive control group. • 4. The culture supernatants were removed subsequently and the nitric oxide were accumulated for the measurement of iNOS activity by the Griess-reaction. • 5. 100 μl Griess reagent (1% sulfanilamide, 0.1% naphthlethylenediamine dihydrochloride in 2.5% phosphoric acid) was added into 100 μl culture supernatant and the color development was assessed at 550 nm with a ELISA microplate reader (SpectraMax® M2e Multimode Plate Reader, Molecular Devices, USA). • 6. Standard curves were generated with a serial dilution of sodium nitrite dissolved in culture medium which is phenol red free. […] The inflammation index herein is nitrite.

[3] = system: Adjuvant-Induced Arthritis (AIA); experiment: Adjuvant-Induced Arthritis (rheumatoid arthritis) treatment effect in rats; type: in vivo, Sprague-Dawely rats; settings: intravenous injection at day 14, 10 mg/kg
Experimental: • 1. Thirty of eight weeks male Sprague-Dawely rats (BioLASCO Taiwan Co., Ltd.) were prepared. Rats were divided into 4 groups randomly (n=9 for vehicle and Prednisolone group, n=6 for HA-ADH-Prednisolone and HA group). Every two rats were placed into one cage in rodent animal facility in Institute of Taiwan Animal Technology. • 2. Inject 0.1 mL of CFA (Complete Freund's Adjuvant, 10 mg/mL, Chondrex Inc.) containing 10 mg/mL of heat-killed mycobacterium into subcutaneously at a footpad of right hind limb. • 3. The needle should be inserted just under the skin of the footpad pointing toward the ankle: this maximizes delivery of the adjuvant to the draining popliteal lymph nodes. • 4. Severe and acute inflammation is observed within 30 minutes of injection, peaks within 3 to 4 days, and often persists for 20 to 25 days. • 5. Rat were treated at day 14 after induction of the Adjuvant-Induced Arthritis (AIA) by intravenous injection of Prednisolone or HA-Prednisolone (both 10 mg/kg), or saline as a control. • 6. Rats were sacrificed at day 20 after treatment and tissues were isolated hereafter.
• Paw thickness and Ankle circumference: Paw thickness determined by measuring paw diameter using a caliper, such as Mitsutoyo digimatic caliper. Ankle circumference determined by measuring 2 perpendicular diameters, the latero-lateral diameter (a) and the anteroposterior diameter (b), with a digital caliper and using the following formula: […]

Compound | anti-inflammation effect, change percentage of PGE2 amount (FIG. 8) (Raw 264.7 cells [1]; 100 μM Fexofenadine or equivalent, then 1 μg/mL LPS 24 h) | anti-inflammation effect, change of nitrite concentration (FIG. 6) (Raw 264.7 cells [2]) | treatment effect, change percentage of ankle circumference (FIG. 12) [3] | treatment effect, change percentage of paw thickness (FIG. 11) [3] | anti-inflammation effect, change percentage of PGE2 amount (FIG. 10) (Raw 264.7 cells [1]; 86.7 μM Prednisolone or equivalent, then 1 μg/mL LPS 24 hours)
CC(C)(C(=O)O)c1ccc(C(O)CCCN2CCC(C(O)(c3ccccc3)c3ccccc3)CC2)cc1 (stereo not drawn) [Fexofenadine] | has treatment effect |  |  |  | 
hyaluronic acid [HA] |  | have treatment effect | enhance RA symptom | almost the same trend comparing with control group | 
C[C@]12C=CC(=O)C=C1CC[C@@H]1[C@@H]2[C@@H](O)C[C@@]2(C)[C@H]1CC[C@]2(O)C(=O)CO [Prednisolone] |  |  |  | showed the treatment effect | has treatment effect
